In brackets after ≈: the same amount, converted by molar mass.
Assays:
Shigella sp. = test: in vitro antibiotic activity by the Gradient Plate method, Shigella; assay type: cell-based; settings: read-out: Minimum Inhibitory Concentration vs. Shigella sp.
Description: (§1) The antibiotic activity for these compounds is illustrated by the activity data in the following Table II. In the Table, the compounds designated by the groups R, R1 and R2 have reference to the following formula I [drawing 35] and the in vitro activity was determined by the Gradient Plate method.

Klebsiella pneumoniae = test: in vitro antibiotic activity by the Gradient Plate method, Klebsiella; assay type: cell-based; settings: read-out: Minimum Inhibitory Concentration vs. Klebsiella pneumoniae
Description: as §1

Enterobacter aerogenes = test: in vitro antibiotic activity by the Gradient Plate method, Enterobacter; assay type: cell-based; settings: Klebsiella aerogenes, read-out: Minimum Inhibitory Concentration vs. Enterobacter aerogenes
Description: as §1

Pseudomonas aeruginosa = test: in vitro antibiotic activity by the Gradient Plate method, Pseudomonas; assay type: cell-based; settings: read-out: Minimum Inhibitory Concentration vs. Pseudomonas aeruginosa
Description: as §1

Serratia marcescens = test: in vitro antibiotic activity by the Gradient Plate method, Serratia; assay type: cell-based; settings: read-out: Minimum Inhibitory Concentration vs. Serratia marcescens
Description: as §1

Escherichia coli = test: in vitro antibiotic activity by the Gradient Plate method, E. coli; assay type: cell-based; settings: read-out: Minimum Inhibitory Concentration vs. Escherichia coli
Description: as §1

Salmonella heidelberg = test: in vitro antibiotic activity by the Gradient Plate method, Salmonella; assay type: cell-based; settings: Salmonella enterica, read-out: Minimum Inhibitory Concentration vs. Salmonella heidelberg
Description: as §1

Titration 66 percent DMF = assay type: physicochemical; settings: 66% dmf
Excerpt: IR (KBr): 1770 cm^-1 (β-lactam carbonyl) U.V. (methanol): γ max 278 (ε17,921) Titration 66 percent DMF: pKa 4.98.

Structure (SMILES)	MIC (Shigella sp.) [µg/mL]	MIC (Klebsiella pneumoniae) [µg/mL]	MIC (Enterobacter aerogenes) [µg/mL]	MIC (Pseudomonas aeruginosa) [µg/mL]	MIC (Serratia marcescens) [µg/mL]	MIC (Escherichia coli) [µg/mL]	MIC (Salmonella heidelberg) [µg/mL]	pKa (Titration 66 percent DMF)
CNC(=O)N(C)C(=O)NC(C(=O)NC1C(=O)N2C(C(=O)O)=C(COC(N)=O)CSC12)c1ccccc1 (stereo not drawn)	7 (≈ 13.4 µM)	7.8 (≈ 15 µM)	19.5 (≈ 37.5 µM)	18.3 (≈ 35.2 µM)	67.5 (≈ 130 µM)	17.8 (≈ 34.2 µM)	8.5 (≈ 16.3 µM)	–
CS(=O)(=O)N1CCN(C(=O)NC(C(=O)NC2C(=O)N3C(C(=O)O)=C(COC(N)=O)CSC23)c2ccc(O)cc2)C1=O (stereo not drawn)	4.3 (≈ 7.02 µM)	5.5 (≈ 8.98 µM)	10 (≈ 16.3 µM)	47.5 (≈ 77.5 µM)	100 (≈ 163 µM)	10 (≈ 16.3 µM)	4.8 (≈ 7.84 µM)	–
NC(=O)OCC1=C(C(=O)O)N2C(=O)C(NC(=O)C(NC(=O)NC(=O)c3ccco3)c3ccc(O)cc3)C2SC1 (stereo not drawn)	12.5 (≈ 22.3 µM)	16 (≈ 28.6 µM)	17.2 (≈ 30.7 µM)	10 (≈ 17.9 µM)	120 (≈ 214 µM)	17.2 (≈ 30.7 µM)	16 (≈ 28.6 µM)	–
CNC(=O)OCC1=C(C(=O)O)N2C(=O)C(NC(=O)C(NC(=O)N(C)C(=O)NC)c3ccccc3)C2SC1 (stereo not drawn) [7-[α-(3-Methylcarbamoyl-3-methyl-1-ureido)-α-phenylacetamido]-3-N-methylcarbamoyloxymethyl-3-cephem-4-carboxylic acid]	5.5 (≈ 10.3 µM)	7 (≈ 13.1 µM)	19.5 (≈ 36.5 µM)	30 (≈ 56.1 µM)	42.5 (≈ 79.5 µM)	15.5 (≈ 29 µM)	8.5 (≈ 15.9 µM)	–
CN(C(=O)C=Cc1ccccc1)C(=O)NC(C(=O)NC1C(=O)N2C(C(=O)O)=C(COC(N)=O)CSC12)c1ccccc1 (stereo not drawn)	1 (≈ 1.68 µM)	0.3 (≈ 0.505 µM)	8 (≈ 13.5 µM)	21.8 (≈ 36.7 µM)	8 (≈ 13.5 µM)	5.5 (≈ 9.27 µM)	6.5 (≈ 10.9 µM)	–
CNC(=O)NC(=O)NC(C(=O)NC1C(=O)N2C(C(=O)O)=C(COC(N)=O)CSC12)c1ccccc1 (stereo not drawn)	21.5 (≈ 42.4 µM)	35 (≈ 69.1 µM)	65 (≈ 128 µM)	22.8 (≈ 45 µM)	> 200	51.3 (≈ 101 µM)	30 (≈ 59.2 µM)	–
CNC(=O)N(C)C(=O)NC(C(=O)NC1C(=O)N2C(C(=O)O)=C(COC(N)=O)CSC12)c1ccc(O)cc1 (stereo not drawn)	4.5 (≈ 8.39 µM)	10 (≈ 18.6 µM)	5.5 (≈ 10.3 µM)	13.5 (≈ 25.2 µM)	160 (≈ 298 µM)	10 (≈ 18.6 µM)	5 (≈ 9.32 µM)	–
CN(C(=O)C=Cc1ccccc1)C(=O)N[C@@H](C(=O)NC1C(=O)N2C(C(=O)O)=C(COC(N)=O)CSC12)c1ccccc1 (stereo partly drawn) [Example 8, 7-[D-α-(3-Cinnamoyl-3-methyl-1-ureido)-α-phenylacetamido]-3-carbamoyloxymethyl-3-cephem-4-carboxylic acid]	–	–	–	–	–	–	–	4.98
CNC(=O)NC(=O)NC(C(=O)NC1C(=O)N2C(C(=O)O)=C(COC(N)=O)CSC12)c1ccc(O)cc1 (stereo not drawn)	17.3 (≈ 33.1 µM)	100 (≈ 191 µM)	18.5 (≈ 35.4 µM)	33.3 (≈ 63.7 µM)	> 200	27.2 (≈ 52.1 µM)	12.5 (≈ 23.9 µM)	–

From patent US4061630A, “7-Substituted-ureido-3-carbamoyloxymethyl cephalosporin antibiotics” (Eli Lilly and Company, priority 1976, dated 1977)
